Read-outs that look alike come from different tables or passages of the source.

In general, IC50 refers to the concentration at which inhibition is half-maximal.

The nature of data set [1]: Generation of ROS in vitro (DCFH fluorescence, cell-free). It counts as biochemical. Conditions: iron complex 100 µM, H2O2 (10 mM), glutathione (5 mM), pH 7.5, relative to FeSO4. On the procedure:
Monitoring generation of ROS in the presence of the prodrugs A-E, Comparative Example and control compounds (Table 1):
2',7'-Dichlorfluorescin diacetate (DCFH-DA, 4.9 mg) was dissolved in DMF (100 µL) and mixed with aqueous NaOH (0.1 M, 900 µL). The resulting mixture was incubated for 30 min at 22°C in the dark to obtain the stock solution of 2',7'-dichlorfluorescin (DCFH, 10 mM). Next, the solution (1 mL) containing DCFH (10 µM), MOPS buffer (100 mM, pH 7.5), EDTA (10 mM), glutathione (5 mM) and H2O2 (10 mM) was prepared. Monitoring of fluorescence (λex= 501 nm, λem= 531 nm) of this solution was started. After 3 min, an iron complex (100 µM: ferrocene prodrugs A-E, Comparative Example, negative or positive controls 1 a, P) was added and the fluorescence monitoring was continued. Efficacy of ROS generation was then determined 17 and 37 min after the addition of the iron complex by using the following formulae: efficacy = (F(prodrug) - F0) / (F(FeSO4) - F0), where F(prodrug) is fluorescence of a mixture containing prodrug and treated as described above, F(FeSO4) is fluorescence of a mixture containing FeSO4; F0 is fluorescence of a mixture containing no iron complex.

Data set [2] is described as follows: TLC retention factor as measure of hydrophobicity. The data set is classed as physicochemical. Conditions: support - SiO2, eluent - hexane / ethyl acetate (3/1, v/v); proportional to hydrophobicity.
Data set [3] is described as follows: Formation of ferrocenium ions in the presence of H2O2 (absorbance at 300 nm). The data set is classed as physicochemical. Conditions: 100 µM complex in dimethylformamide, 9.8 mM H2O2 (Figure 1). As for the experimental part: Figure 1: Iron complexes (100 µM) were dissolved in dimethylformamide and concentrated H2O2 solution (30 % in water, 1 µL) was added: final H2O2 concentration was 9.8 mM. Light absorbance at 300 nm was monitored as a function of time.
Monitoring formation of ferrocenium ions from the prodrugs A and B, as well as comparative example C.-E
Formation of ferrocenium ions from ferrocenes correlates with the increased light absorption in the region between 250 and 350 nm. In this spectral region […] have intense charge transfer transitions, whereas ferrocenes have only weak transitions (Y.S. Sohn, D.N. Hendrickson, H.B. Grey, J. Am. Chem. Soc., 1971, 93(15), 3603 - 3612).

Data set [4] can be described thus: Release of iron ions from the prodrugs in the presence of hydrogen peroxide (2,2'-bipyridine absorbance). Conditions: H2O2 (1 mM), 22°C, 100 min, MOPS buffer pH 7.5; relative to FeSO4 (100 µM). The data set is classed as physicochemical. As for the experimental part:
Monitoring release of iron ions from the prodrugs A-E, Comparative Example and control compounds in the presence of hydrogen peroxide (Table 1):
Solution of a ferrocene complex (10 µL, 10 mM in DMF containing 2% water and 1% sodium ascorbate) was diluted with MOPS buffer (990 µL, 100 mM, pH 7.5). Such probes were incubated with H2O2 (1 mM) at 22°C for 100 min. Then the reaction was quenched by adding sodium dithionite (20 µL, 1 M in water) that converts Fe^3+ into Fe^2+. Finally, 2,2'-bipyridine solution (3 µL, 100 mM in DMF) was added to form dark red [Fe(2,2'-bipyridine)3]^2+ complex (λmax= 519 nm). FeSO4 sulfate (100 µM) was used as a positive control to determine the absorbance intensity when the ferrocene complexes were completely converted by H2O2 to free Fe^2+. […] The data are provided in Table 2 and were determined by using the following formulae: iron release efficacy = (A519nm(prodrug) - A519nm(buffer)) / (A519nm(FeSO4) - A519nm(buffer)), where A519nm(prodrug) is absorbance at 519 nm of a prodrug treated with H2O2 and 2,2'-bipyridine as described above, A519nm(FeSO4) is absorbance at 519 nm of FeSO4 treated in a similar way as a prodrug and A519nm(buffer) is absorbance at 519 nm of the buffer only treated in a similar way as a prodrug.

The test system of data set [5] is Human promyelocytic leukemia cells (HL-60). In words: Viability of HL-60 cells (propidium iodide, flow cytometry). The data set is classed as cell-based. Conditions: read-out: Toxicity of the complexes: IC50. On the procedure: Determination of viability of HL-60 cells (Table 4)
HL-60 cells grown in RPMI 1640 medium supplemented with 10 % FCS, 1 % L-glutamine and 1% penicillin were centrifuged, the medium was replaced with RPMI 1640 medium (5 % FCS, 1 % L-glutamine, 1% penicillin) to obtain suspensions containing 10^6 cells per mL. Stock solutions of prodrugs of different concentrations (5 µL, solvent: DMF containing 2 % water and 1 % sodium ascorbate) were added to the cellular suspensions (500 µL) and incubated for specific periods of time. Four experiments were conducted for each concentration of the prodrug. At the end of the incubation period propidium iodide (PI, 1 µL, 1.5 mM in water) was added to label leaky cells and in 5 min the suspension of the cells was analyzed by using flow cytometry.
In general terms: Flow cytometry measures light scatter and fluorescence of single cells or particles in a stream.

Data set [6] concerns HL-60 cells. Kind of data set: Generation of ROS in cells (DCFH-DA, flow cytometry). It counts as cell-based, Human. Conditions: 50 µM, 4 h. As for the experimental part:
Generation of ROS in HL-60 cells in the presence the prodrugs, comparative example C.-E. and controls (Table 3)
The probe of HL-60 cells was taken from the cultivation medium (RPMI 1640 supplemented with 10 % FCS, 1 % L-glutamine and 1% penicillin). The medium was replaced for PBS-buffer to obtain the cell suspension with 10^6 cells per mL. DCFH-DA solution (1 µL, 10 mM in DMSO) was added to the suspension (1 mL) and incubated in the dark chamber filled with CO2 (5 %) at 37 °C for 5 min. Then, the cells were washed with PBS and RPMI 1640 (5 % FCS, 1 % L-glutamine, 1% penicillin) medium and an iron complex (10 µL of stock solutions, solvent: DMF containing 2 % water and 1 % sodium ascorbate, final concentration of the complex - 50 µM) was added. After 4 h of the incubation the fluorescence of live cells (λex = 488 nm, λem = 530 nm) in the suspensions was determined by using the flow cytometer. Efficacy of ROS generation was determined using the following formulae: efficacy = (F(prodrug) - F0) / (F(FeSO4) - F0), where F(prodrug) is mean fluorescence intensity of cells incubated with a prodrug and treated as described above, F(FeSO4) is mean fluorescence intensity of cells incubated with FeSO4; F0 is mean fluorescence intensity of cells, which were not treated with any iron complex.

The subject of data set [7] is HEY (ovary). Conditions: cited from earlier work.
Data set [8] relates to CIN8/27B (myeloma). Conditions: cited from earlier work.
The subject of data set [9] is A375 (melanoma). Conditions: cited from earlier work.
In data set [10] the test system is 8226 (myeloma). Conditions: cited from earlier work.
Data set [11] deals with 8226-Dox 40 (myeloma). Conditions: cited from earlier work.
Data set [12] concerns MIRW5 (melanoma). Conditions: cited from earlier work.
Data set [13] has as its system MCF-7 (breast). Conditions: cited from earlier work.
The test system of data set [14] is C480 (colon). Conditions: cited from earlier work.
In data set [15] the test system is BE (ovary). Conditions: cited from earlier work.
The subject of data set [16] is C8161 (melanoma). Conditions: cited from earlier work.
Data set [17] has as its system HL60-cells. Kind of data set: Cell permeability of the prodrugs (boron/curcumin assay). Conditions: 100 µM, 1 h, boron relative to comparative example C.-E. The data set is classed as cell-based, Human. As for the experimental part:
Assay for determination of cell Permeability of the prodrugs (Table 2) (according to the protocol described in J.Plant Nutr. Soil Sci. 1999,162,15-18) HL60-cells grown in RPMI 1640 medium supplemented with 10 % FCS, 1 % glutamine and 1% penicillin / streptomycin were centrifuged and the medium was replaced with RPMI 1640 medium (5 % FCS, 1 % L-glutamine, 1% penicillin) to obtain suspensions containing 10^6 cells per mL. Solutions of prodrugs (5 µL, solvent: DMF containing 2 % water and 1 % sodium ascorbate) were added to the suspensions (500 µL) and incubated for 1 h. The final concentration of the prodrugs in the suspensions was 100 µM. Then the cells were washed 3 times with PBS buffer (3 x 500 µL), treated with concentrated H2O2 solution (200 µL, 1 M) for 30 min and all volatiles were removed by lyophilization. Dry, lysed cells were washed with water (200 µL) and aqueous solution obtained was acidified with HCl (400 µL, 0.1 M). Then this solution was extracted with ethyl-1,3-hexandiol (100 µL, 10 % in CHCl3, v/v) and a portion of the organic phase obtained (40 µL) was mixed with H2SO4 / CH3CO2H (400 µL, 1/1, v/v). Curcumin solution in methylisobutylketone (500 µL, 2 mg in 1 mL of the solvent) was added and allowed to react for 24 h. The reaction was quenched by addition of water (1 mL). […] The value A(550 nm)-A(780 nm) was proportional to concentration of boron in the mixture. Amount of boron released from comparative example C.-E. was taken as a reference. All other values were determined relative to this reference. These values are compared in Table 2 with TLC retention factors, which are proportional to hydrophobicity of the prodrugs.

[18] abbreviates: 72 h incubation (value in brackets).

As for “4-((N-Ferrocenylaminocarbonyl)oxymethyl)-2-methylphenylboronic acid pinacol ester [Prodrug E]”, the “Efficacy of ROS generation in vitro” value in data set [1] (17 min incubation) is listed as 0.52. Besides, the “TLC-retention factor (Rf)” value in data set [2] is 0.45. Also, the “formation of ferrocenium ions” value in [3] is given as “rather decomposed with formation of iron ions”. In addition, in data set [4], the “Efficacy of iron release in vitro” value was found to be 0.74. Besides, in data set [5], the IC50 amounted to 39 ± 4 µM. The “Efficacy of ROS release in cells” value in data set [6] came out at 0.04 ± 0.02.
Regarding “4-((N-Ethyl-N-Ferrocenylaminocarbonyl)oxymethyl)-2-phenylboronic acid pinacol ester [Prodrug A]”, the “Efficacy of ROS generation in vitro” value in [1] (17 min incubation) came out at 0.50. The “TLC-retention factor (Rf)” value in [2] was found to be 0.47. Further, the “Efficacy of iron release in vitro” value in data set [4] came out at 0.72. Further, the IC50 is 12 to 26 µM in [5] (listed as prodrug A) and 26 ± 3 µM in data set [5]. In data set [6], the “Efficacy of ROS release in cells” value worked out at 0.06 ± 0.03.
For the molecule `N=C1NC(=O)N2CC12` (centres unmarked) [Imexon (Amplimexon), Imexon], the IC50 is 180 µM in data set [7] (24 h incubation); 270 µM in data set [7] (setting [18]); 270 µM in [8] (24 h incubation); 90 µM in data set [8] (setting [18]); 54 µM in data set [9] (24 h incubation); 45 µM in [9] (setting [18]). Further, the IC50 in [10] (24 h incubation) is 40 µM; in data set [10] (setting [18]) it was 41 µM; in data set [11] (24 h incubation) it was 40 µM; in data set [11] (setting [18]), 36 µM; in data set [12] (24 h incubation) it was 315 µM; in [12] (setting [18]) it was 63 µM. Moreover, the half-inhibitory concentration (IC50) in data set [13] (24 h incubation) was 270 µM; in data set [13] (setting [18]) it was 450 µM; in [14] (24 h incubation), 270 µM; in data set [14] (setting [18]), 135 µM; in data set [15] (24 h incubation) it was 450 µM; in data set [15] (setting [18]), 270 µM. The values for the IC50 in [16] (24 h incubation) and in [16] (setting [18]) were 72 µM and 135 µM, respectively.
With “4-((N-(4-ethylbenzyl)-N-Ferrocenylaminocarbonyl)oxymethyl)-2-phenylboronic acid pinacol ester [Prodrug D]”, in data set [17], the “Relative efficiency of cell loading” value came out at 2.3. The figures for the “Efficacy of ROS generation in vitro” value in data set [1] (17 min incubation) and in data set [1] (37 min incubation) were 0.09 and 0.24, respectively. In addition, the “TLC-retention factor (Rf)” value in data set [2] is reported as 0.51. Further, the “Efficacy of iron release in vitro” value in [4] came to 0. In addition, the figures for the IC50 in data set [5] (listed as prodrug D) and in data set [5] were 12 to 26 µM and 14 µM, respectively. The “Efficacy of ROS release in cells” value in data set [6] is listed as 0.03 ± 0.02.
On to “4-((N-(4-methylbenzyl)-N-Ferrocenylaminocarbonyl)oxymethyl)-2-phenylboronic acid pinacol ester [Prodrug C]”, for which the “Relative efficiency of cell loading” value in data set [17] is 1.5. For the same molecule, the “Efficacy of ROS generation in vitro” value in [1] (17 min incubation) came out at 0.10; in data set [1] (37 min incubation) it was 0.42. Also, the “TLC-retention factor (Rf)” value in [2] is given as 0.50. In addition, the “Efficacy of iron release in vitro” value in [4] stood at 0. The IC50 in data set [5] (listed as prodrug C) is 12 to 26 µM; in data set [5], 12 ± 1 µM.

(Values after patent publication EP2497775A1, “Ferrocene-based compounds and their use as ROS regulating prodrugs” (Ruprecht-Karls-Universität Heidelberg, priority 2011, dated 2012).)
